# In patent US20260207578A1, “COMPOUND BASED ON SULFUR/OXYGEN SUBSTITUTED GLUTARIMIDE-BASED ISOINDOLINONE SKELETON AND USE THEREOF” (Gluetacs Therapeutics (Shanghai) Co., LTD., priority 2022, published 2026):
# Legend:
# [1] = target: T1, IKZF3 (Homo sapiens, UniProt Q96SW2+Q9UKT9); assay: Western-blot assay, substrate protein in hPBMCs; format: cell-based; details: hPBMC cells, 24 hours, tested at 50 nM and 500 nM, table does not say which
# T1 construct: endogenous in cells; host or cells: human PBMCs (Milecell Biotechnologies)
# Method in brief: (§1)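 hPBMCs (1×10^6 cells/mL) exposed 24 h to compound at 50 nM and 500 nM, lysed, and probed by Western blot. Band grayscale normalized to internal control gives % protein remaining versus DMSO; DC50 from concentration-response fit at half DMSO band intensity.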
# [2] = target: T2, GSPT1 (Homo sapiens, UniProt P15170+Q96SW2); assay: Western-blot assay, substrate protein in hPBMCs; format: cell-based; details: hPBMC cells, 24 hours, tested at 50 nM and 500 nM, table does not say which
# T2 construct: endogenous in cells; host or cells: human PBMCs (Milecell Biotechnologies)
# Method in brief: (§2)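 Steps: treat hPBMCs 24 h; lyse on ice in RIPA with phosphatase inhibitors; quantify protein by BCA; denature at 95 °C and blot. Remaining protein (%) is the target/internal-control band ratio, normalised; degradation rate is its complement.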
# [3] = test system: CCRF-CEM; assay: Half inhibitory concentration (IC50) against tumor cells, Cell Counting Kit-8; format: cell-based; details: Homo sapiens, CCK-8, 96 h treatment, read-out: inhibitory activity (IC50, nM) against tumor cells proliferation
# Procedure: (§3) The tumor cells used herein were cultured in a cell culture medium listed in table A at 37° C. in an incubator with 5% CO2.
# (§4) After the cells were treated with the compounds of the present disclosure for a period of time, the cell viability detection reagent was added to the culture medium for cell viability assessment according to the instructions provided with the CCK-8 kit. […] The growth inhibition of the compounds of the present disclosure on cells was plotted by Prism Graphpad software, and the IC50 values of the compounds of the present disclosure were calculated therefrom.
# [4] = test system: Daudi; assay: as above; format: cell-based; details: Homo sapiens, CCK-8, 96 h treatment, read-out: inhibitory activity (IC50, nM) against tumor cells proliferation
# Procedure: as §3, §4
# [5] = target: T3, Wee1 (Homo sapiens, UniProt P30291+Q96SW2); assay: Western-blot assay, substrate protein in hPBMCs; format: cell-based; details: hPBMC cells, 24 hours, tested at 50 nM and 500 nM, table does not say which
# T3 construct: endogenous in cells; host or cells: human PBMCs (Milecell Biotechnologies)
# Method in brief: as §2
# [6] = test system: CAL-62; assay: Half inhibitory concentration (IC50) against tumor cells, Cell Counting Kit-8; format: cell-based; details: Homo sapiens, CCK-8, 96 h treatment, read-out: inhibitory activity (IC50, nM) against tumor cells proliferation
# Procedure: as §3, §4
# [7] = target: T4, human Cereblon WT GST-tagged protein (Homo sapiens, UniProt Q96SW2); assay: CRBN-binding affinity, HTRF (CEREBLON BINDING kit); details: displacement of Thalidomide-Re reagent, 3 hours at room temperature
# T4 construct: purchased CISBIO 64BDCRBNPEH
# Method in brief: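 HTRF competition format: compound, GST-tagged wild-type human Cereblon, Thalidomide-Re tracer and GST Eu antibody were combined in PROTAC binding buffer. Binding was derived from emission at 620 nm relative to blank and solvent control wells.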
# [8] = target: T5, IKZF1 (Homo sapiens, UniProt Q13422+Q96SW2); assay: Western-blot assay, substrate protein in hPBMCs; format: cell-based; details: hPBMC cells, 24 hours, tested at 50 nM and 500 nM, table does not say which
# T5 construct: endogenous in cells; host or cells: human PBMCs (Milecell Biotechnologies)
# Method in brief: as §1
# [9] = target: T6, IKZF2 (Homo sapiens, UniProt Q96SW2+Q9UKS7); assay: Western-blot assay, substrate protein in hPBMCs; format: cell-based; details: hPBMC cells, 24 hours, tested at 50 nM and 500 nM, table does not say which
# T6 construct: endogenous in cells; host or cells: human PBMCs (Milecell Biotechnologies)
# Method in brief: as §2
# [10] = test system: THP-1; assay: Half inhibitory concentration (IC50) against tumor cells, Cell Counting Kit-8; format: cell-based; details: Homo sapiens, CCK-8, 96 h treatment, read-out: inhibitory activity (IC50, nM) against tumor cells proliferation
# Procedure: as §3, §4
# [11] = target: T7, CK1α (Homo sapiens, UniProt P48729+Q96SW2); assay: Western-blot assay, substrate protein in hPBMCs; format: cell-based; details: hPBMC cells, 24 hours, tested at 50 nM and 500 nM, table does not say which
# T7 construct: endogenous in cells; host or cells: human PBMCs (Milecell Biotechnologies)
# Method in brief: as §2
# [12] = test system: MM.1S; assay: Half inhibitory concentration (IC50) against tumor cells, Cell Counting Kit-8; format: cell-based; details: Homo sapiens, MM1.S, CCK-8, 96 h treatment, read-out: inhibitory activity (IC50, nM) against tumor cells proliferation
# Procedure: as §3, §4
# [13] = test system: Kasumi-1; assay: as above; format: cell-based; details: Homo sapiens, CCK-8, 96 h treatment, read-out: inhibitory activity (IC50, nM) against tumor cells proliferation
# Procedure: as §3, §4
# [14] = test system: MV-4-11; assay: as above; format: cell-based; details: Homo sapiens, MV4-11, CCK-8, 96 h treatment, read-out: inhibitory activity (IC50, nM) against tumor cells proliferation
# Procedure: as §3, §4
# T2 sequence (P15170 whole entry): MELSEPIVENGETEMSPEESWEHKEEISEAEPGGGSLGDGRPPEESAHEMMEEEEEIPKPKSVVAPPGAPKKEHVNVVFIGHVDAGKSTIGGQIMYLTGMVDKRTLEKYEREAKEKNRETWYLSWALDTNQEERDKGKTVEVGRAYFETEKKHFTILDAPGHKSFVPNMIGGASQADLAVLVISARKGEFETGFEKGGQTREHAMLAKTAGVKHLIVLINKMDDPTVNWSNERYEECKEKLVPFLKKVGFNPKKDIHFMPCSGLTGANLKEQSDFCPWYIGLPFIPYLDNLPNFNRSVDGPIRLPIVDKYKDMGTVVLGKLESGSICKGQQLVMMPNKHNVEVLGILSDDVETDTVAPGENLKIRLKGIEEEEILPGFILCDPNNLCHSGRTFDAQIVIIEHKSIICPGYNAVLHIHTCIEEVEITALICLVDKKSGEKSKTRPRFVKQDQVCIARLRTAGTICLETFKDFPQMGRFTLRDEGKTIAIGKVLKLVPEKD
# T2 sequence (Q96SW2 whole entry): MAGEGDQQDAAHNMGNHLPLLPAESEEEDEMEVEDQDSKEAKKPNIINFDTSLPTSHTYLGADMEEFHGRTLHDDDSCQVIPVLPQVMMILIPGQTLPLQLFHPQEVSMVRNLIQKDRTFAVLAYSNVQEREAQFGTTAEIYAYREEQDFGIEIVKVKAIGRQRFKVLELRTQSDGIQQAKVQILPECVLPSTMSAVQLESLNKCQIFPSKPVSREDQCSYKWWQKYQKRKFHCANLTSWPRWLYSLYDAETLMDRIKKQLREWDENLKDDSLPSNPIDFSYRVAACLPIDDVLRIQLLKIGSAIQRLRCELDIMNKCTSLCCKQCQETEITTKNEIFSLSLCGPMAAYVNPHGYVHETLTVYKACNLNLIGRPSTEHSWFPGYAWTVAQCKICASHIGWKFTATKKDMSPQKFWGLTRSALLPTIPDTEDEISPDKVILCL
# T2 sequence (Q16531 whole entry partner): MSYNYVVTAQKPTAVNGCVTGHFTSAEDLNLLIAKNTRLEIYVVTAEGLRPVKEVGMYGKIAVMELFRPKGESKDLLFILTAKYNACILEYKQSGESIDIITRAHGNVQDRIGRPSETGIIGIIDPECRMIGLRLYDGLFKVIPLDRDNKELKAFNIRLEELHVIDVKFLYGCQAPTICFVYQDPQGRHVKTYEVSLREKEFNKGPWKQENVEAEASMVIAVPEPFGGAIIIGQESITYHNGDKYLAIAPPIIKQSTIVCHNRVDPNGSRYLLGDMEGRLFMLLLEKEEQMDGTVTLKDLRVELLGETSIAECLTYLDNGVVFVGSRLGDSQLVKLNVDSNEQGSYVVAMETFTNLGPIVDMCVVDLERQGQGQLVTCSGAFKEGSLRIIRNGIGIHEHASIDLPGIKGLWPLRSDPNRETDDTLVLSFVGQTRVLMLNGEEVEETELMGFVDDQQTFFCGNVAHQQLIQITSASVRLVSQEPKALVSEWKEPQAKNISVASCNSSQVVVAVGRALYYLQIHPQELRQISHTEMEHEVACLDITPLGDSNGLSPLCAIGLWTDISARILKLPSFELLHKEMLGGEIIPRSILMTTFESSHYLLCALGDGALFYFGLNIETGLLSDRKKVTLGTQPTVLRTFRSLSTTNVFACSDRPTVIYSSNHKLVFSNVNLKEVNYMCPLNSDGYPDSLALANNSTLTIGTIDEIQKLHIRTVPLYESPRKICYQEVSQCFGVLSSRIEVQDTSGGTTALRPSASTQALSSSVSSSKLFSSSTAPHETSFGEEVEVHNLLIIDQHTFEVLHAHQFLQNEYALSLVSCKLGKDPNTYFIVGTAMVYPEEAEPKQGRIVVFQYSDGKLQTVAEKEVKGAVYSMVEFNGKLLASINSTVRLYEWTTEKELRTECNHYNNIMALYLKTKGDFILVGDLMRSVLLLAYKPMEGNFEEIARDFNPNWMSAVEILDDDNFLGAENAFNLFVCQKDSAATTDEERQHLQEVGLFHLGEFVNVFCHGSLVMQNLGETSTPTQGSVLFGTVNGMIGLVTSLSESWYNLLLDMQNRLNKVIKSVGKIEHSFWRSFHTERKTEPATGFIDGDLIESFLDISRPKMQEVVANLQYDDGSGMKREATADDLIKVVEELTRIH
# T1 sequence (Q9UKT9 whole entry): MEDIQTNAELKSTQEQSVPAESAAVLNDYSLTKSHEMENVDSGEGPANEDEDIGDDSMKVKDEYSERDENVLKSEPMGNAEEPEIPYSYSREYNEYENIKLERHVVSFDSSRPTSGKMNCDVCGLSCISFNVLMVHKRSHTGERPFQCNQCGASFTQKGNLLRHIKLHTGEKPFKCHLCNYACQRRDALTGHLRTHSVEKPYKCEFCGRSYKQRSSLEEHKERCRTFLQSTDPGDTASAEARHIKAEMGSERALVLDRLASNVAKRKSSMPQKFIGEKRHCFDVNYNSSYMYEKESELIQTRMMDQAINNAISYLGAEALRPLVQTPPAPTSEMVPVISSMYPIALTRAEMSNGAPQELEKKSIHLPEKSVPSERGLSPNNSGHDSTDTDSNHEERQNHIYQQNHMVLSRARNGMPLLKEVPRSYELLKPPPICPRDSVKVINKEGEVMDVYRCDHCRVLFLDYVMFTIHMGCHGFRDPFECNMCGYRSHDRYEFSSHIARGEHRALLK
# T1 sequence (Q96SW2 whole entry): as the sequence (Q96SW2 whole entry) above
# T1 sequence (Q16531 whole entry partner): as the sequence (Q16531 whole entry partner) above
# T7 sequence (P48729 whole entry): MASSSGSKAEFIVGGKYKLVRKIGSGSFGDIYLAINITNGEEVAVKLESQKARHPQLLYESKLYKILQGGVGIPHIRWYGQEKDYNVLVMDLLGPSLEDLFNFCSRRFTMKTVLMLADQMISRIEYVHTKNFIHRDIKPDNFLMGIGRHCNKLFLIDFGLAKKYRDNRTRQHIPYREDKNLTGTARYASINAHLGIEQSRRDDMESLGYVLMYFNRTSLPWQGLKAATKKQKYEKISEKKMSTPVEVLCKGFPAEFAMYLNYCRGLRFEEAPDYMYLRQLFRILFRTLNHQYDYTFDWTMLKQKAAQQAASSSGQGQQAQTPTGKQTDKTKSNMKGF
# T7 sequence (Q96SW2 whole entry): as the sequence (Q96SW2 whole entry) above
# T7 sequence (Q16531 whole entry partner): as the sequence (Q16531 whole entry partner) above
# T5 sequence (Q13422 whole entry): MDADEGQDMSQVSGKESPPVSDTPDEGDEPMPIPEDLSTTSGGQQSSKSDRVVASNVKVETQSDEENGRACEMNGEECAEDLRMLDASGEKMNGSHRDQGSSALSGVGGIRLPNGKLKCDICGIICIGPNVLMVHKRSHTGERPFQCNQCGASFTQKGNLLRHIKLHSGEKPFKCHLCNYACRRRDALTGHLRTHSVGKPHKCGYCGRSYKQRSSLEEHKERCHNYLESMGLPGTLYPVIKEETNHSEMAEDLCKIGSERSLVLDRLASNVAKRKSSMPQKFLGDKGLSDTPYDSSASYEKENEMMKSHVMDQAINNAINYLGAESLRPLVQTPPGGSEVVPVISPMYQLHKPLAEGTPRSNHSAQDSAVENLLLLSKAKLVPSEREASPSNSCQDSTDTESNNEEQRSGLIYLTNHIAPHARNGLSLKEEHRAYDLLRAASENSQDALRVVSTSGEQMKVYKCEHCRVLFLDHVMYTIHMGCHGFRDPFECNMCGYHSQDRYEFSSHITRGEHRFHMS
# T5 sequence (Q96SW2 whole entry): as the sequence (Q96SW2 whole entry) above
# T5 sequence (Q16531 whole entry partner): as the sequence (Q16531 whole entry partner) above
# T4 sequence (Q96SW2 whole entry): as the sequence (Q96SW2 whole entry) above
# T6 sequence (Q9UKS7 whole entry): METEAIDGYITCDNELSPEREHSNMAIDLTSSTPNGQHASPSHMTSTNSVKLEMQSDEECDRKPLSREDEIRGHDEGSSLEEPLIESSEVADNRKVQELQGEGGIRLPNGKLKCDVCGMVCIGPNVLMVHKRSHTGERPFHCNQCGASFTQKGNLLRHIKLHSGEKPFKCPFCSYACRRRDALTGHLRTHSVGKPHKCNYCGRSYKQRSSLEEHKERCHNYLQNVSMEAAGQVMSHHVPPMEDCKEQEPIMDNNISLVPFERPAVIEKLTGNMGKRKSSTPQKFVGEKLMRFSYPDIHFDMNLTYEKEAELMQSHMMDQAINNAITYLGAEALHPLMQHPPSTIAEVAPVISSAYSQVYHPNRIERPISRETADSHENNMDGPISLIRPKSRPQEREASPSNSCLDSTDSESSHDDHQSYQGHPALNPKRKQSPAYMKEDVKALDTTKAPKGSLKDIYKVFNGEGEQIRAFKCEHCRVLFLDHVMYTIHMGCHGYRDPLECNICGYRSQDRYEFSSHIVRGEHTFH
# T6 sequence (Q96SW2 whole entry): as the sequence (Q96SW2 whole entry) above
# T6 sequence (Q16531 whole entry partner): as the sequence (Q16531 whole entry partner) above
Structure (SMILES),substrate protein remaining % [1],substrate protein remaining % [2],IC50 [3] [nM],IC50 [4] [nM],substrate protein remaining % [5],IC50 [6] [nM],IC50 [7] [nM],substrate protein remaining % [8],substrate protein remaining % [9],IC50 [10] [nM],substrate protein remaining % [11],IC50 [12] [nM],IC50 [13] [nM],IC50 [14] [nM]
"O=C1CCC(N2Cc3cc(SC4CCN(Cc5ccccc5-c5ccc(Cl)cc5)CC4)ccc3C2=O)C(=O)N1 (stereo not shown) [GT-03357, 3-(5-((1-((4′-chloro-[1,1′-biphenyl]-2-yl)methyl)piperidin-4-yl)thio)-1-oxoisoindolin-2-yl)piperidine-2,6-dione]",A (0%≤ substrate protein remaining % ≤80%),A (0%≤ substrate protein remaining % ≤80%),100 to 500,100 to 500,–,–,–,–,–,–,–,–,–,–
"CC1(C)CCC(CN2CCC(Sc3ccc4c(c3)CN(C3CCC(=O)NC3=O)C4=O)CC2)=C(c2ccc(Cl)cc2)C1 (stereo not shown) [GT-03462, 3-(5-((1-((4′-chloro-5,5-dimethyl-3,4,5,6-tetrahydro-[1,1′-biphenyl]-2-yl)methyl)piperidin-4-yl)thio)-1-oxoisoindolin-2-yl)piperidine-2,6-dione]",–,A (0%≤ substrate protein remaining % ≤80%),500 to 1000,–,A (0%≤ substrate protein remaining % ≤80%),100 to 500,500 to 1000,–,–,–,–,–,–,–
"O=C1CCC(N2Cc3cc(SC4CN(C(=O)c5ccccc5-c5ccc(Cl)cc5)C4)ccc3C2=O)C(=O)N1 (stereo not shown) [GT-03892, 3-(5-((1-(4′-chloro-[1,1′-biphenyl]-2-carbonyl)azetidin-3-yl)thio)-1-oxoisoindolin-2-yl)piperidine-2,6-dione]",A (0%≤ substrate protein remaining % ≤80%),A (0%≤ substrate protein remaining % ≤80%),10 to 50,–,A (0%≤ substrate protein remaining % ≤80%),10 to 50,< 500,A (0%≤ substrate protein remaining % ≤80%),A (0%≤ substrate protein remaining % ≤80%),100 to 500,–,–,–,–
"CC1(C)CCC(CN2CCC(Sc3ccc4c(c3)CN(C3CCC(=O)NC3=O)C4=O)C2)=C(c2ccc(Cl)cc2)C1 (stereo not shown) [GT-04245, 3-(5-((1-((4′-chloro-5,5-dimethyl-3,4,5,6-tetrahydro-[1,1′-biphenyl]-2-yl)methyl)pyrrolidin-3-yl)thio)-1-oxoisoindolin-2-yl)piperidine-2,6-dione]",–,A (0%≤ substrate protein remaining % ≤80%),–,–,–,–,< 500,–,A (0%≤ substrate protein remaining % ≤80%),500 to 1000,–,–,–,–
"O=C1CCC(N2Cc3cc(SC4CCN(C(=O)c5ccccc5-c5ccc(Cl)cc5)CC4)ccc3C2=O)C(=O)N1 (stereo not shown) [GT-06182, 3-(5-((1-(4′-chloro-[1,1′-biphenyl]-2-carbonyl)piperidin-4-yl)thio)-1-oxoisoindolin-2-yl)piperidine-2,6-dione]",A (0%≤ substrate protein remaining % ≤80%),A (0%≤ substrate protein remaining % ≤80%),–,–,A (0%≤ substrate protein remaining % ≤80%),–,< 500,A (0%≤ substrate protein remaining % ≤80%),–,–,A (0%≤ substrate protein remaining % ≤80%),10 to 50,–,–
"O=C1CCC(N2Cc3cc(OC4CCN(C(=O)c5ccccc5-c5ccc(Cl)cc5)CC4)ccc3C2=O)C(=O)N1 (stereo not shown) [GT-06204, 3-(5-((1-(4′-chloro-[1,1′-biphenyl]-2-carbonyl)piperidin-4-yl)oxy)-1-oxoisoindolin-2-yl)piperidine-2,6-dione]",A (0%≤ substrate protein remaining % ≤80%),A (0%≤ substrate protein remaining % ≤80%),–,–,–,–,< 500,–,A (0%≤ substrate protein remaining % ≤80%),–,A (0%≤ substrate protein remaining % ≤80%),10 to 50,–,–
"O=C1CCC(N2Cc3cc(SC4CN(C(c5ccccc5F)c5ccccc5F)C4)ccc3C2=O)C(=O)N1 (stereo not shown) [GT-06758, 3-(5-((1-(bis(2-fluorophenyl)methyl)azetidin-3-yl)thio)-1-oxoisoindolin-2-yl)piperidine-2,6-dione]",–,A (0%≤ substrate protein remaining % ≤80%),50 to 100,–,–,–,< 500,A (0%≤ substrate protein remaining % ≤80%),A (0%≤ substrate protein remaining % ≤80%),–,–,–,100 to 500,50 to 100
"CC1(C)CCC(CN2CCC3(CC2)CC(Sc2ccc4c(c2)CN(C2CCC(=O)NC2=O)C4=O)C3)=C(c2ccc(Cl)cc2)C1 (stereo not shown) [GT-06873, 3-(5-((7-((4′-chloro-5,5-dimethyl-3,4,5,6-tetrahydro-[1,1′-biphenyl]-2-yl)methyl)-7-azaspiro[3.5]nonan-2-yl)thio)-1-oxoisoindolin-2-yl)piperidine-2,6-dione]",A (0%≤ substrate protein remaining % ≤80%),A (0%≤ substrate protein remaining % ≤80%),–,–,A (0%≤ substrate protein remaining % ≤80%),–,1000 to 1900,A (0%≤ substrate protein remaining % ≤80%),A (0%≤ substrate protein remaining % ≤80%),–,A (0%≤ substrate protein remaining % ≤80%),–,–,10 to 50
"O=C1CCC(N2Cc3cc(SC4CCN(Cc5ccccc5-c5ccc(Cl)cc5)CC4(F)F)ccc3C2=O)C(=O)N1 (stereo not shown) [GT-06924, 3-(5-((1-((4′-chloro-[1,1′-biphenyl]-2-yl)methyl)-3,3-difluoropiperidin-4-yl)thio)-1-oxoisoindolin-2-yl)piperidine-2,6-dione]",–,A (0%≤ substrate protein remaining % ≤80%),500 to 1000,–,–,–,–,A (0%≤ substrate protein remaining % ≤80%),–,–,A (0%≤ substrate protein remaining % ≤80%),–,–,100 to 500
"O=C1CCC(N2Cc3cc(SC4CCN(C(=O)c5ccccc5-c5ccc(Cl)cc5)CC4(F)F)ccc3C2=O)C(=O)N1 (stereo not shown) [GT-06925, 3-(5-((1-(4′-chloro-[1,1′-biphenyl]-2-carbonyl)-3,3-difluoropiperidin-4-yl)thio)-1-oxoisoindolin-2-yl)piperidine-2,6-dione]",A (0%≤ substrate protein remaining % ≤80%),A (0%≤ substrate protein remaining % ≤80%),–,–,A (0%≤ substrate protein remaining % ≤80%),–,500 to 1000,A (0%≤ substrate protein remaining % ≤80%),A (0%≤ substrate protein remaining % ≤80%),–,A (0%≤ substrate protein remaining % ≤80%),–,–,1 to 10
"O=C1CCC(N2Cc3cc(SC4CCN(C(c5ccccc5)c5ccccc5)CC4(F)F)ccc3C2=O)C(=O)N1 (stereo not shown) [GT-06926, 3-(5-((1-benzhydryl-3,3-difluoropiperidin-4-yl)thio)-1-oxoisoindolin-2-yl)piperidine-2,6-dione]",A (0%≤ substrate protein remaining % ≤80%),A (0%≤ substrate protein remaining % ≤80%),50 to 100,–,A (0%≤ substrate protein remaining % ≤80%),–,1000 to 1900,A (0%≤ substrate protein remaining % ≤80%),A (0%≤ substrate protein remaining % ≤80%),–,A (0%≤ substrate protein remaining % ≤80%),–,100 to 500,10 to 50
